# Several values for one entry are separate records, joined by “and”; a condition that tells them apart may be missing. Identical values can stand only once. Counter-ions that a name gives are not always drawn.
# What was measured:
# GABA-A receptor = assay: Radioligand binding at the GABA-A receptor; parameters: species or system rat; conditions: mean of two-three independent experiments; read-out: GABA-A Ki ± SEM
# Protocol: The study was conducted in accordance with previously established protocols, and performed in duplicate. Rat brains were homogenized and prepared following the described methodologies. The assay was carried out directly on 96-well microplates containing 50 mM Tris-HCl buffer (pH 7.4) in a total volume of 300 μL. […] To determine nonspecific binding, 100 μM GABA was included in the mixture. The 96-well microplates were incubated at 0 °C for 10 min, followed by rapid filtration through FilterMate B glass fiber filters (PerkinElmer, USA) using a Harvester-96 MACH III FM (Tomtec, USA). The filters were gently dried in a microwave and sealed in plastic bags (PerkinElmer, USA). Each filter was then immersed in 10 mL of Ultima Gold MV liquid scintillation cocktail (PerkinElmer, USA). […] Ki values were calculated using the Cheng and Prusoff equation, and statistical analyses were conducted using GraphPad Prism (version 4.0, San Diego, CA, USA)
# PAMPA permeability assay = format: in vitro ADME; conditions: PBS pH 7.4, 100 μM, zolpidem tested as tartrate; for Papp at 5 h, 100 μM: pH 7.4, PAMPA, read-out: Permeability Pe ± SD; for Permeability Pe ± SD: 5 h
# Protocol: PAMPA. The precoated PAMPA Plate System Gentest, obtained from Corning (Tewksbury, MA, USA), was used for the permeability study. The system includes a 96-well receiver filter plate precoated with structured phospholipid layers and a matching donor microplate. Stock solutions of the test compounds and reference drugs were prepared in PBS buffer (pH 7.4) at a final concentration of 100 μM. Each compound solution (200 μL) was added to the donor wells and incubated at room temperature for 5 h. The quantity of molecules that penetrated from the donor wells to the acceptor wells through the phospholipid membrane was determined using UPLC-MS spectrometry (Waters ACQUITY TQD system with the TQ Detector, Waters, Milford, USA) with an internal standard. Permeability coefficients (Pe, cm/s) were calculated according to the formula provided by the manufacturer.
# α1β2γ2 GABA-A receptor = target: T1, α1β2γ2 GABA-A receptor (Homo sapiens, UniProt P14867+P18507); assay: Electrophysiological studies (QPatch16X automated patch-clamp), PAM efficacy; format: cell-based
# T1 construct: expressed in transfected cells
# SH-SY5Y cells [1] = assay: ToxiLight assay (cell membrane damage); format: cell-based; conditions: Table S1, 24 h
# Protocol: Damage to the cell membrane was assessed using the bioluminescent ToxiLight bioassay (Lonza), a profound method for detecting cell toxicity. Following 24 h of treatment, 5 μL of the supernatant above the sediment was transferred to a 384-well plate (PerkinElmer). Subsequently, 20 μL of Adenylate Kinase Detection Reagent (AKDR) was added to each well. Luminescence was recorded after a 10 min incubation period using a POLARstar Omega plate reader (BMG Labtech). Results are presented as a percentage relative to the control sample (cells lysed), reflecting the proportion of dead cells compared to the control.
# (§1) 1. Cytotoxicity studies for selected compounds
# Table S1. The viability of the cells SH-SY5Y after treatment with tested compounds for 24 the results are expressed as a percentage of dead cells with luminescence ToxiLight Assay. The results are expressed as a per cent of control with whole lysis cells. N.C. not countable […]
# Table S2. The viability of the cells SH-SY5Y after treatment with tested compounds for 24 h the results are expressed as a percentage of live cells with fluorescence PrestoBlue Assay. The results are expressed as a per cent of vehicle (DMSO). […]
# SH-SY5Y cells [2] = assay: Intracellular calcium concentration after 6-OHDA (Fluo-4); format: cell-based, human; conditions: 50 μM pretreatment 1 h, then 6-OHDA 250 μM 1 h
# Protocol: 7 (A). Effect of 6-Hydroxydopamine (6-OHDA) on intracellular calcium concentration [Ca^2+] determined by Fluo-4 AM. After pretreatment with tested compounds (50 μM) or vehicle (0.5% DMSO, v/v) for 1 h, the cells were incubated with 6-Hydroxydopamine (6-OHDA, 250 μM) for 1 h. 6-OHDA control: cells treated with 250 μM of 6-OHDA. […]. DMSO control: cells treated with 0.5% DMSO only. Data are presented as the mean ± SD from 2–3 independent experiments. Experiments were carried on with ImageXpress Micro XLS (Molecular Devices). (B) The level of ROS generation was determined by Cell ROX dye. After pretreatment with tested compounds (50 μM) or vehicle (0.5% DMSO, v/v) for 1 h, the cells were incubated with hydrogen peroxide (H2O2, 300 μM) for 1 h. H2O2 control: cells treated with H2O2 (300 μM). DMSO control: cells treated with 0.5% DMSO only. Data are presented as the mean ± SD from 2–3 independent experiments. Experiments were carried on with the ImageXpress Micro XLS (Molecular Devices).
# The SH-SY5Y human neuroblastoma cell line was maintained according to established protocols. The cells, obtained from the American Type Culture Collection (ATCC), were cultured in Dulbecco’s Modified Eagle’s Medium (DMEM, high glucose; Thermo Fisher), supplemented with 10% fetal bovine serum (Thermo Fisher), 100 IU/ml penicillin (Merck), and 100 μg/mL streptomycin (Merck). They were grown in 75 cm^2 flasks (Nunc) at 37 °C in a humidified atmosphere containing 5% CO2. For compound evaluation, SH-SY5Y cells were plated in 96-well plates (Falcon) at a density of 2 × 10^4 cells per well. The cells were allowed to adhere and grow for 24 h in an incubator set to 37 °C and 5% CO2 before starting the experiments. Stock solutions of both test and reference compounds were prepared at a concentration of 10^–2 M. A minimum of 1 mg of each compound was dissolved in dimethyl sulfoxide (DMSO). Serial dilutions were made in DMSO, then further diluted in PBS, mixed, and added to the cell culture medium.
# The intracellular Ca^2+ levels were assessed using a homogeneous cell-based assay with the Fluo-4 Direct Calcium Assay Kit (Thermo Fisher). Following incubation with the tested compounds, the supernatant was discarded, and the cells were incubated with 1 μM Fluo-4/AM in FluoroBrite DMEM (Thermo Fisher) for 1 h at 37 °C. The results were expressed as a percentage relative to the control (DMSO). Fluorescence intensity was recorded using the ImageXpress Micro XLS system (Molecular Devices).
# SH-SY5Y cells [3] = assay: PrestoBlue cell viability assay; format: cell-based; conditions: Table S2, 24 h
# Protocol: Cell viability was determined using the Presto Blue reagent (ThermoFisher) following the manufacturer’s instructions.
# as §1
# Table S1. The viability of the cells SH-SY5Y after treatment with tested compounds for 24 the results are expressed as a percentage of dead cells with luminescence ToxiLight Assay. The results are expressed as a per cent of control with whole […]
# percentage of live cells with fluorescence PrestoBlue Assay. The results are expressed as a per cent of vehicle (DMSO).
# T1 sequence (P14867 28-456): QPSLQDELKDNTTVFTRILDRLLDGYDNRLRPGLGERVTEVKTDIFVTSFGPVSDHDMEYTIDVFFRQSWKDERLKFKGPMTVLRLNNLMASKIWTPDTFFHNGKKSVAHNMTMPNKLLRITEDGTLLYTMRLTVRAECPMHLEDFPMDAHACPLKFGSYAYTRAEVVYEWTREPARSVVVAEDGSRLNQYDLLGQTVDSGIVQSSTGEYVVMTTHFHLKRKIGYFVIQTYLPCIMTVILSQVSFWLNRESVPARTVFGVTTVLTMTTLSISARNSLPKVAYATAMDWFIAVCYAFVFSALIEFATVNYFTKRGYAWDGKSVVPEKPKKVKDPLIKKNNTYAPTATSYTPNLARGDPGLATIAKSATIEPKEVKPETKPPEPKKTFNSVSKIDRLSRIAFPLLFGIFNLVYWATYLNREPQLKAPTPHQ
# T1 sequence (P47870 25-512 partner limits assumed): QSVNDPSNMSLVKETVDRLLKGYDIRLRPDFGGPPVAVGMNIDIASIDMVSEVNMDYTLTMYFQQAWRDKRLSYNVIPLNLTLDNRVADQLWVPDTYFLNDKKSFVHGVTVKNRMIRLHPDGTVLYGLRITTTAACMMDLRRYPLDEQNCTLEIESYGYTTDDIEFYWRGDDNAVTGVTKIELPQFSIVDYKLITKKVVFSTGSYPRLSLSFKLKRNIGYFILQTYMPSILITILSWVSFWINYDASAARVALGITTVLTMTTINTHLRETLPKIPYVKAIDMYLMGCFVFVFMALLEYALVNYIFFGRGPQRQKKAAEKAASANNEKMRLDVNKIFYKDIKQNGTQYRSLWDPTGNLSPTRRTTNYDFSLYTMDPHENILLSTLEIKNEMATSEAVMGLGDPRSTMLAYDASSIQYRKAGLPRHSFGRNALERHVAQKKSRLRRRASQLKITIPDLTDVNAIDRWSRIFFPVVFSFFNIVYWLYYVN
# T1 sequence (P18507 40-475): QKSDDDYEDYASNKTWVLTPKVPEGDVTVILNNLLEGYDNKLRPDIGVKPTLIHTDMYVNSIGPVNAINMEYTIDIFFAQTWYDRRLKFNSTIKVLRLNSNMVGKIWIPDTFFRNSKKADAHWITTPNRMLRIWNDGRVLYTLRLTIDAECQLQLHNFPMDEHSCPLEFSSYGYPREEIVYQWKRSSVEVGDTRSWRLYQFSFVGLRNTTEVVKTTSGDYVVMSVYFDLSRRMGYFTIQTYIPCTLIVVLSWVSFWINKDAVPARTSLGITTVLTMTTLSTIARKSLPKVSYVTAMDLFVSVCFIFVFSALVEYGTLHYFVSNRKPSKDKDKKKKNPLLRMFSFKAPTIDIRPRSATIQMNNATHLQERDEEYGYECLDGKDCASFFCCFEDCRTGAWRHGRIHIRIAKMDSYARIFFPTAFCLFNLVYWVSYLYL
compound,measurement,setting,value
"Cc1ccc2nc(-c3ccc(F)cc3)c(CC(=O)N3CCN(C)CC3)n2c1 [Compound 4, 2-[2-(4-Fluorophenyl)-6-methylimidazo[1,2-a]pyridin-3-yl]-1-(4-methylpiperazin-1-yl)ethan-1-one formate salt]",Ki,GABA-A receptor,278 ± 43 nM
"Cc1ccc2nc(-c3ccc(F)cc3)c(CC(=O)N3CCNCC3)n2c1 [Compound 5, 2-[2-(4-Fluorophenyl)-6-methylimidazo[1,2-a]pyridin-3-yl]-1-(piperazin-1-yl)ethan-1-one]","Papp at 5 h, 100 μM",PAMPA permeability assay,3.35 ± 0.4 ×10⁻⁶ cm/s
"Cc1ccc2nc(-c3ccc(F)cc3)c(CC(=O)N3CCC(C)CC3)n2c1 [Compound 7, 2-[2-(4-Fluorophenyl)-6-methylimidazo[1,2-a]pyridin-3-yl]-1-(4-methylpiperidin-1-yl)ethan-1-one]",Ki,GABA-A receptor,204 ± 20.6 nM
"Cc1ccc2nc(-c3ccc(F)cc3)c(CC(=O)N3CCN(C(C)C)CC3)n2c1 [Compound 8, 2-[2-(4-Fluorophenyl)-6-methylimidazo[1,2-a]pyridin-3-yl]-1-[4-(propan-2-yl)piperazin-1-yl]ethan-1-one]",Ki,GABA-A receptor,5230 ± 510 nM
"Cc1ccc2nc(-c3ccc(F)cc3)c(CC(=O)N3CCN(C4CC4)CC3)n2c1 [Compound 9, 1-(4-Cyclopropylpiperazin-1-yl)-2-[2-(4-fluorophenyl)-6-methylimidazo[1,2-a]pyridin-3-yl]ethan-1-one]",Ki,GABA-A receptor,1340 ± 46 nM
"Cc1ccc2nc(-c3ccc(F)cc3)c(CC(=O)N3CCN(CC(C)C)CC3)n2c1 [Compound 10, 2-[2-(4-Fluorophenyl)-6-methylimidazo[1,2-a]pyridin-3-yl]-1-[4-(2-methylpropyl)piperazin-1-yl]ethan-1-one]",Ki,GABA-A receptor,3330 ± 374 nM
"Cc1ccc2nc(-c3ccc(F)cc3)c(CC(=O)N3CCN(C(C)(C)C)CC3)n2c1 [Compound 11, 1-(4-tert-Butylpiperazin-1-yl)-2-[2-(4-fluorophenyl)-6-methylimidazo[1,2-a]pyridin-3-yl]ethan-1-one]",Ki,GABA-A receptor,7820 ± 1720 nM
"Cc1ccc2nc(-c3ccc(F)cc3)c(CC(=O)N3CC4CCCCC4C3)n2c1 (stereo not shown) [Compound 12, 2-[2-(4-Fluorophenyl)-6-methylimidazo[1,2-a]pyridin-3-yl]-1-(octahydro-1H-isoindol-2-yl)ethan-1-one]",Ki,GABA-A receptor,517 ± 61.2 nM
"Cc1ccc2nc(-c3ccc(F)cc3)c(CC(=O)N3CCCCCC3)n2c1 [Compound 13, 1-(Azepan-1-yl)-2-(2-(4-fluorophenyl)-6-methylimidazo[1,2-a]pyridin-3-yl)ethan-1-one]",Ki,GABA-A receptor,453 ± 59.3 nM
"Cc1ccc2nc(-c3ccc(F)cc3)c(CC(=O)N3CCSC3(C)C)n2c1 [Compound 14, 1-(2,2-Dimethyl-1,3-thiazolidin-3-yl)-2-[2-(4-fluorophenyl)-6-methylimidazo[1,2-a]pyridin-3-yl]ethan-1-one]",Ki,GABA-A receptor,551 nM and 552 nM
"Cc1ccc2nc(-c3ccc(F)cc3)c(CC(=O)N3CCSC3)n2c1 [Compound 15, 2-[2-(4-Fluorophenyl)-6-methylimidazo[1,2-a]pyridin-3-yl]-1-(1,3-thiazolidin-3-yl)ethan-1-one]",Permeability Pe ± SD,PAMPA permeability assay,7.89 ± 1.35 ·10^–6 cm/s
same,"Papp at 5 h, 100 μM",PAMPA permeability assay,> 4 ×10⁻⁶ cm/s
same,EC50,α1β2γ2 GABA-A receptor,743 ± 136 nM
same,"X [%], percentage of dead cells, ToxiLight Assay (per cent of control with whole lysis cells)",SH-SY5Y cells [1]; 1E-04 M,67%
same,"X [%], percentage of dead cells, ToxiLight Assay (per cent of control with whole lysis cells)",SH-SY5Y cells [1]; 1E-05 M,108%
same,"X [%], percentage of dead cells, ToxiLight Assay (per cent of control with whole lysis cells)",SH-SY5Y cells [1]; 1E-06 M,110%
same,"X [%], percentage of dead cells, ToxiLight Assay (per cent of control with whole lysis cells)",SH-SY5Y cells [1]; 1E-07 M,107%
same,"X [%], percentage of dead cells, ToxiLight Assay (per cent of control with whole lysis cells)",SH-SY5Y cells [1]; 1E-08 M,108%
same,"X [%], percentage of dead cells, ToxiLight Assay (per cent of control with whole lysis cells)",SH-SY5Y cells [1]; 1E-09 M,101%
same,"X [%], percentage of dead cells, ToxiLight Assay (per cent of control with whole lysis cells)",SH-SY5Y cells [1]; 3E-05 M,96%
same,"X [%], percentage of dead cells, ToxiLight Assay (per cent of control with whole lysis cells)",SH-SY5Y cells [1]; 3E-06 M,105%
same,Reduction of intracellular calcium levels,SH-SY5Y cells [2],≤ 50%
same,"X [%], percentage of live cells, PrestoBlue Assay (per cent of vehicle DMSO)",SH-SY5Y cells [3]; 1E-04 M,14%
same,"X [%], percentage of live cells, PrestoBlue Assay (per cent of vehicle DMSO)",SH-SY5Y cells [3]; 1E-05 M,12%
same,"X [%], percentage of live cells, PrestoBlue Assay (per cent of vehicle DMSO)",SH-SY5Y cells [3]; 1E-06 M,16%
same,"X [%], percentage of live cells, PrestoBlue Assay (per cent of vehicle DMSO)",SH-SY5Y cells [3]; 1E-07 M,14%
same,"X [%], percentage of live cells, PrestoBlue Assay (per cent of vehicle DMSO)",SH-SY5Y cells [3]; 1E-08 M,15%
same,"X [%], percentage of live cells, PrestoBlue Assay (per cent of vehicle DMSO)",SH-SY5Y cells [3]; 1E-09 M,14%
same,"X [%], percentage of live cells, PrestoBlue Assay (per cent of vehicle DMSO)",SH-SY5Y cells [3]; 3E-05 M,15%
same,"X [%], percentage of live cells, PrestoBlue Assay (per cent of vehicle DMSO)",SH-SY5Y cells [3]; 3E-06 M,15%
"Cc1ccc2nc(-c3ccc(F)cc3)c(CC(=O)NC3CCNC3)n2c1 (stereo not shown) [Compound 16, 2-[2-(4-Fluorophenyl)-6-methylimidazo[1,2-a]pyridin-3-yl]-N-(pyrrolidin-3-yl)acetamide]","Papp at 5 h, 100 μM",PAMPA permeability assay,0.154 ± 0.005 ×10⁻⁶ cm/s
same,Ki,GABA-A receptor,< 200 nM and 140 nM
"CN1C(=O)CN=C(c2ccccc2)c2cc(Cl)ccc21 [diazepam, reference compound]",Ki,GABA-A receptor,5.6 ± 0.7 nM
"CCN1CCCC1CNC(=O)c1cc(S(N)(=O)=O)ccc1OC (stereo not shown) [sulpiride, reference compound]",Permeability Pe ± SD,PAMPA permeability assay,0.016 ± 0.003 ·10^–6 cm/s
